For data set [1], the system named is A549. The experiment in a line: Antiproliferative activity against human A549 cells assessed as inhibition of cell growth incubated for 24 hrs in presence of foetal bovine serum by MTT assay. Type of data set: functional, cell-based. As to conditions: A549, 24 h. (In general: Formazan colour is commonly taken as a measure of viable cells.)
A further data set has as its system SCC-4. The experiment in a line: Antiproliferative activity against human SCC-4 cells assessed as inhibition of cell proliferation incubated for 24 hrs by MTT assay. The format is functional, cell-based. Conditions: SCC-4, 24 h.
In a further data set the test system is MDA-MB-231. The experiment in a line: Antiproliferative activity against human MDA-MB-231 cells assessed as inhibition of cell proliferation incubated for 24 hrs by CCK-8 assay. The format is functional, cell-based. As to conditions: MDA-MB-231, 24 h.
The nature of data set [2]: Antitubulin activity against bovine brain tubulin polymerization preincubated with compound followed by GTP addition by turbidimetry-based spectrophotometric method. On the set-up: species or system Bos taurus.
The next data set deals with B16-F10. The data set can be described thus: Antiproliferative activity against mouse B16-F10 cells incubated for 24 hrs by MTT assay. Type of data set: functional, cell-based. As to conditions: B16-F10, 24 h.
Data set [3] in a line: Cytotoxicity against human HEK293T cells assessed as inhibition of cell growth incubated for 24 hrs in presence of foetal bovine serum by MTT assay. The format is toxicity, cell-based, HEK-293T.
In a further data set the test system is MCF7. The experiment in a line: Antiproliferative activity against human MCF7 cells assessed as inhibition of cell proliferation incubated for 24 hrs by MTT assay. Type of data set: functional, cell-based. Conditions: MCF7, 24 h.
Data set [4] in a line: Antitubulin activity against bovine brain tubulin polymerization preincubated with compound followed by GTP addition and measured after 20 mins by turbidimetry-based spectrophotometric method. On the set-up: species or system Bos taurus.
Another data set concerns Fibroblast. The experiment in a line: Cytotoxicity against human skin fibroblast cells incubated for 72 hrs by MTT assay. Type of data set: functional, cell-based.
The nature of data set [5]: Cytotoxicity against African green monkey VERO cells assessed as inhibition of cell growth incubated for 24 hrs by MTT assay. Type of data set: toxicity, cell-based, Chlorocebus sabaeus.
The nature of data set [6]: Cytotoxicity against human MCF-10A incubated for 24 hrs by MTT assay. Type of data set: toxicity, cell-based. As to conditions: MCF-10A cells.
The test system of another data set is Ca9-22. The data set can be described thus: Cytotoxicity against human Ca9-22 cells assessed as reduction in cell viability incubated for 48 hrs by MTT assay. Type of data set: functional, cell-based. Conditions: Ca9-22, 48 h.
The next data set relates to SK-BR-3. The experiment in a line: Antiproliferative activity against human SK-BR-3 cells assessed as inhibition of cell growth incubated for 24 hrs in presence of foetal bovine serum by MTT assay. Type of data set: functional, cell-based. Conditions: SK-BR-3, 24 h.
The nature of data set [7]: Cytotoxicity against human MCF-10A cells assessed as inhibition of cell proliferation incubated for 24 hrs by CCK-8 assay. The format is toxicity, cell-based.
The subject of data set [8] is A549. The experiment in a line: Antiproliferative activity against human A549 cells assessed as inhibition of cell proliferation incubated for 24 hrs by MTT assay. Type of data set: functional, cell-based. As to conditions: A549, 24 h.
A short description of data set [9]: Anticancer activity against human A875 cells assessed as inhibition of cell growth incubated for 24 hrs by MTT assay. The format is functional, cell-based. As to conditions: A875, 24 h.
Data set [10] can be described thus: Cytotoxicity against African green monkey Vero cells incubated for 24 hrs by MTT assay. The format is toxicity, cell-based, Chlorocebus sabaeus.

pIC50: −log10 of the molar value.

Take `CC(C)=CC[C@@H](O)C1=CC(=O)c2c(O)ccc(O)c2C1=O` [SHIKONIN]: the pIC50 (usually the IC50 on a negative log10 scale, so that one unit is a factor of ten) was 4.93 with A549 [1]; 5.00 in the data set with SCC-4; 5.12 in the data set on MDA-MB-231; 4.77 in [2]; 4.75 in the data set on B16-F10; 5.30 in the data set on MCF7. In addition, the negative logarithm of the IC50 (pIC50) in [4] was 4.82; with Fibroblast it was 5.91; with Ca9-22 it was 4.89; in the data set on SK-BR-3, 5.43; in the data set with A549 [8] it was 5.50; in [9] it was 6.34. Besides, the concentration for half-maximal inhibition (IC50) (as a rule, the concentration needed to halve the response being measured) at 24 h in [3] was 9.27 µM; in [5], 6.76 µM; in [6], 93.4 µM; in data set [7] it was 20.9 µM; in data set [10] it was 6.76 µM.

For the origin of these results see ChEMBL document CHEMBL5137008, “Recent advances of antitumor shikonin/alkannin derivatives: A comprehensive overview focusing on structural classification, synthetic approaches, and mechanisms of action” (Eur J Med Chem, 2022).
